Measurements from patent publication US20260200849A1, “CATIONIC LIPIDS AND PREPARATION METHOD THEREOF” (RiboX Therapeutics HK Limited, priority 2024, published 2026).
“And” between values parts separate entries of the source, which are not always exact repeats. Equal entries are not always repeated. Where two headings read alike, the source gives them in different places.

Tests used:
[1] = LNP size and polydispersity index (PDI) by dynamic light scattering (Zetasizer); type: physicochemical; conditions: for Size (nm): Formulation No. 001 (Ionizable lipid:DSPC:cholesterol:DMG-PEG2000 = 50:10:38.5:1.5, N/P 6), RNA No. 331
Description: (§1) The LNP size and polydispersity index (PDI), determined by dynamic light scattering (DLS), and zeta potential were measured by a Zetasizer machine (Malvern). RNA concentration and encapsulation efficacy (EE %) were analyzed by the Quant-IT Ribogreen kit by calculating the percentage encapsulation at 100%—(RNA-LNPs/RNA-LNPs with Triton X-100).

[2] = RNA encapsulation efficacy (EE %) by Quant-IT Ribogreen kit; type: physicochemical; conditions: LNP
Description: as §1

[3] = test system: Balb/c mice; test: In vivo expression by IV, 0.05 mg/kg luciferase RNA-LNPs, IVIS luminescence; conditions: IV 0.05 mg/kg, 24 h post injection, female Balb/c mice N=3, Formulation 001, RNA 331
Description: 7-8 week old, female Balb/c mice (N=3) were injected with 0.05 mg*kg−1 of RNA-LNPs encoding for firefly-luciferase by intravenous injection. At 24- and 72-hours post injection, animals were intraperitoneally injected with 15 mg/mi of Luciferin substrate and whole-body luminescence was determined by a bioluminescent in vivo imaging system (IVIS).
7-8 week old, female Balb/c mice (N=3) were injected with 0.05 mg*kg−1 of RNA-LNPs encoding for firefly-luciferase by intravenous injection. At 24-hours post injection, animals were intraperitoneally injected with 15 mg/ml of Luciferin substrate and whole-body/liver/spleen luminescence was determined by a bioluminescent in vivo imaging system (IVIS).

[4] = test system: MCP-1; test: In vivo tolerability by IV: serum MCP-1 by Luminex; parameters: species or system C57BL/6J mice; conditions: IV 1.0 mg/kg, male C57BL/6J mice N=3, Formulation 001, RNA 331
Description: (§2) 6-8 week old, male C57BL/6J mice (N=3) were injected with 1.0 mg*kg/1 of RNA-LNPs encoding for firefly-luciferase by intravenous injection. At 2- and 24-hours post injection, about 40 μL blood was harvested and immediately added to the procoagulant containing tube. Stand for 30 min at room temperature and then centrifuged at 2500 g×10 min to obtain serum. About 15 μL serum samples were aliquoted for cytokine (MCP-1 and IL-6) detection by Luminex (ProcartaPlex Mouse 2-plex, Thermo). PBS group as negative control.
(§3) 6-8 week old, male C57BL/6J mice (N=3) were injected with 1.0 mg*kg−1 of RNA-LNPs encoding for firefly-luciferase by intravenous injection. At 2- and 24-hours post injection, about 40 μL blood was harvested and immediately added to the procoagulant containing tube. Stand for 30 min at room temperature and then centrifuged at 2500 g×10 min to obtain serum. About 15 μL serum samples were aliquoted for cytokine (MCP-1 and IL-6) detection by Luminex (ProcartaPlex Mouse 2-plex, Thermo). PBS group as negative control.

[5] = test system: IL-6; test: In vivo tolerability by IV: serum IL-6 by Luminex; parameters: species or system C57BL/6J mice; conditions: IV 1.0 mg/kg, male C57BL/6J mice N=3, Formulation 001, RNA 331
Description: as §2, §3

[6] = test system: C57BL/6J mice; test: In vivo expression by IV, 1.0 mg/kg luciferase RNA-LNPs, whole-body and organ IVIS luminescence; conditions: IV 1.0 mg/kg, 24 h post injection, male C57BL/6J mice N=3, Formulation 001, RNA 331
Description: 6-8 week old, male C57BL/6J mice (N=3) were injected with 1.0 mg*kg−1 of RNA-LNPs encoding for firefly-luciferase by intravenous injection. At 24-hours post injection, animals were intraperitoneally injected with 15 mg/ml of Luciferin substrate and whole-body/liver/spleen/kidney/small intestine/large intestine luminescence were determined by a bioluminescent in vivo imaging system (IVIS).
6-8 week old, male C57BL/6J mice (N=3) were injected with 1.0 mg*kg−1 of RNA-LNPs encoding for firefly-luciferase by intravenous injection. At 24-hours post injection, animals were intraperitoneally injected with 15 mg/nil of Luciferin substrate and whole-body/liver/spleen/kidney/small intestine/large intestine luminescence were determined by a bioluminescent in vivo imaging system (IVIS).

[7] = In vivo lipid metabolism by IV: ionizable lipid concentration in plasma and liver by LC-MS/MS; parameters: species or system Sprague-Dawley (SD) rats; conditions: IV 0.15 mg/kg RNA-LNPs (hEPO), male SD rats, individual animals N=3
Description: In Vivo Lipid Metabolism by IV 7-8 week old, male Sprague-Dawley (SD) rats (N=3) were injected with 0.15 mg*kg−1 of RNA-LNPs encoding for hEPO by intravenous injection. At 1-/6-/96-/168-hours post injection, about 100 μL blood will be harvested and immediately added to the EDTAK2 containing tube. Place on wet ice and then centrifuged at 3000 g×5 min to obtain plasma. 30 μL plasma will be aliquoted to the 1.5 mL tubes. At terminal 6-/168-hours post injection, the rats will be euthanized with CO2, hemorrhaged immediately with cardiac puncture, respectively. The livers were harvested, weighed and washed with saline, then put into 50 ml centrifuge tube placed in liquid nitrogen, then transferred into wet ice, and finally stored at −80° C. immediately. Both plasma and liver samples were used for ionizable lipid concentration quantification by LC-MS/MS. The lower limit of quantitation (LLOQ) is 1 ng/mL in plasma or 11 ng/g in liver. BQL—Below the lower limit of quantitation (LLOQ).

[8] = Formulation No. 001, RNA No. 019 (hEPO)
[9] = Formulation No. 001, RNA No. 331

SMILES | PDI [1, 9] | Size [1, 9] [nm] | EE (%) [2, 9] [%] | Liver (p/s) (Mean) [3] | Spleen (p/s) (Mean) [3] | Whole body (p/s) (Mean) [3] | MCP-1 at 2 h [4] [pg/mL] | MCP-1 at 24 h [4] [pg/mL] | IL-6 at 2 h [5] [pg/mL] | IL-6 at 24 h [5] [pg/mL] | Kidney (p/s) [6] [p/s] | Large intestine (p/s) [6] [p/s] | Liver (p/s) [6] [p/s] | Small intestine (p/s) [6] [p/s] | Spleen (p/s) [6] [p/s] | Whole body (p/s) [6] [p/s] | Size (nm) [1] [nm] | other results
CCCCCCCCCCC(CCCCCCCC)COC(=O)CCCCCOC(=O)NC(COC(=O)NCCN1CCCCC1)C(=O)OCCCCCC(=O)OCC(CCCCCCCC)CCCCCCCCCC (stereo not shown) [Lipid 1020] | 0.01 | 57.55 | 94.34 | 1.38E+08 | 2.67E+07 | 4.91E+08 | 1930 | 180 | 90.5 | 1.07 | 5.29E+07 | 2.16E+08 | 1.90E+10 | 1.62E+09 | 1.14E+09 | 9.25E+09 |  | PDI [1, 8]: 0.06; Size [1, 8]: 55.95 nm; EE (%) [2, 8]: 97.29%; Plasma (ng/mL), ionizable lipid concentration ([7]; 1 h post injection): 2412 ng/mL and 2622 ng/mL; Liver (ng/g), ionizable lipid concentration ([7]; 6 h post injection): 38824 ng/g and 43259 ng/g; Plasma (ng/mL), ionizable lipid concentration ([7]; 6 h post injection): 1241 ng/mL and 1471 ng/mL; Plasma (ng/mL), ionizable lipid concentration ([7]; 96 h post injection): 31.2 ng/mL and 26.1 ng/mL; Liver (ng/g), ionizable lipid concentration ([7]; 168 h post injection): 2432 ng/g and 1960 ng/g; Plasma (ng/mL), ionizable lipid concentration ([7]; 168 h post injection): 7.35 ng/mL and 11.3 ng/mL and 4.48 ng/mL; concentration at 6 h ([7]; male, Sprague-Dawley, rat, liver, iv, 0.15 mg/kg, 6 h post injection, read-out: Liver (ng/g), ionizable lipid concentration): 36500 ng/g; concentration at 168 h ([7]; male, Sprague-Dawley, rat, liver, iv, 0.15 mg/kg, 168 h post injection, read-out: Liver (ng/g), ionizable lipid concentration): 2890 ng/g; concentration at 1 h ([7]; male, Sprague-Dawley, rat, plasma, iv, 0.15 mg/kg, 1 h post injection): 2420 ng/mL; concentration at 6 h ([7]; male, Sprague-Dawley, rat, plasma, iv, 0.15 mg/kg, 6 h post injection, read-out: Plasma (ng/mL), ionizable lipid concentration): 1210 ng/mL; concentration at 96 h ([7]; male, Sprague-Dawley, rat, plasma, iv, 0.15 mg/kg, 96 h post injection): 33.6 ng/mL
CCCCCCCCCCC(CCCCCCCC)COC(=O)CCCCCOC(=O)NC(COC(=O)NCCN1CCCCCC1)C(=O)OCCCCCCCC(=O)OC(CCCCCCCC)CCCCCCCC (stereo not shown) [Lipid 1072] | 0.04 |  | 96.51 |  |  |  | 554 | 35.1 | 2.07 | 0.947 | 8.41E+06 | 1.22E+07 | 1.40E+10 | 2.07E+08 | 1.95E+08 | 6.81E+09 | 52.67 | 
CCCCCCCCCCC(CCCCCCCC)COC(=O)CCCCCOC(=O)NC(COC(=O)NCCN1CCCC1)C(=O)OCCCCCC(=O)OCC(CCCCCCCC)CCCCCCCCCC (stereo not shown) [Lipid 1019] | 0.10 | 68.78 | 97.11 | 3.60E+07 | 2.21E+07 | 2.46E+08 | 3720 | 401 | 404 | 2.02 | 1.46E+07 | 2.12E+08 | 1.20E+09 | 5.41E+08 | 4.98E+08 | 2.49E+09 |  | 
CCCCCCCC/C=C\CCCCCCCCOC(=O)NC(COC(=O)NCCN1CCCCCC1)C(=O)OCCCCCC(=O)OCC(CCCCCCCC)CCCCCCCCCC (stereo not shown) [Lipid 1041] | 0.08 |  | 90.29 |  |  |  | 1180 | 68.1 | 51.2 | 4.53 | 6.14E+06 | 1.74E+07 | 1.08E+09 | 1.96E+08 | 1.93E+08 | 8.03E+08 | 59.33 | 
CCCCCCCCCCC(CCCCCCCC)COC(=O)CCCCCOC(=O)NC(COC(=O)NCCN(C)C)C(=O)OCCCCCC(=O)OCC(CCCCCCCC)CCCCCCCCCC (stereo not shown) [Lipid 1017] | 0.07 | 69.70 | 97.70 | 3.91E+07 | 1.30E+07 | 2.45E+08 | 2430 | 94.6 | 12.8 | 0.792 | 9.00E+06 | 2.09E+07 | 9.32E+08 | 1.93E+08 | 4.32E+08 | 1.13E+09 |  | 
